# Assay: Compatibility test of adhesives mixed with rivastigmine free base (appearance, miscibility, total impurity)
# Type: physicochemical
# Source text: In order to adopt a suitable adhesive for preparing a rivastigmine patch, each of various adhesives was mixed with rivastigmine free base to confirm the appearance, miscibility and compatibility thereof.
# For a compatibility test, ten adhesives were used as a candidate material, considering the kind of a polymer and functional group present in the composition of each adhesive, the presence of a crosslinker and a solvent present in the composition. Details of the ten adhesives are shown in Table 2, wherein each product listed under the column “Product name” is an adhesive sold under the respective listed trademark.
# Specifically, adhesives containing an acryl- or acrylate-vinylate-based polymer and having no functional group or a hydroxyl or carboxyl group were used. Also, the presence of a crosslinker in the adhesives was evaluated as an important factor to show a compatibility difference. The appearance and miscibility of each adhesive are shown in Table 3, wherein each “Durotak” listed under the column “Ingredient” is a different adhesive sold under the respective trademark.
# For example, in the case that the adhesive sold under the trademark DUROTAK 87-202A was used, the color changed to yellow, while in the cases that the adhesives sold under the trademarks DUROTAK 87-2852, 87-2516 and 87-2052 were used, the color changed to brown. The adhesives undergoing a significant color change were commonly confirmed to have a crosslinker.
structure (smiles),measurement,setting,value
"CCN(C)C(=O)Oc1cccc([C@H](C)N(C)C)c1 [Rivastigmine base, (S)-N-ethyl-3-[(1-dimethylamino)ethyl]-N-methyl-phenyl-carbamate]",Miscibility 2 wks,"active ingredient with adhesive, 2 wks",◯
same,Miscibility Initial,"active ingredient with adhesive, initial",◯
same,Total impurity (% impurity) 2 wks,"rivastigmine base alone or mixed with adhesive, 2 wks",0.07%
same,Total impurity (% impurity) Initial,"rivastigmine base alone or mixed with adhesive, initial",0.03%

# Reference: patent US9585862B2, “Patch containing rivastigmine” (priority 2011, dated 2017)
